Data reported in patent US20260294874A1, “COMPOSITIONS COMPRISING MODULATORS OF RIBONUCLEOPROTEIN GRANULE FORMATION AND DISSOLUTION AND METHODS OF USE THEREOF” (University of Virginia Patent Foundation, priority 2023, published 2026).
“Also recorded” adds a separate entry of the source.

Columns and labels:
Assay type in all cases: cell-based
HNRPK Y72 = molecular target: T1, HNRPK Y72 (Homo sapiens, UniProt P61978); experiment: Competitive ABPP SILAC LC-MS/MS chemical proteomics, HNRPK Y72
T1 construct: liganded site Y72
Experimental: (§1) Preparation of SILAC proteomes for LC-MS/MS analysis. SILAC cell proteomes were fractionated to collect the supernatant and normalized to 2.3 mg/mL in PBS. ‘Heavy’ and ‘light’ proteomes were aliquoted (427 μL) and probe-modified proteins were conjugated to desthiobiotin-PEG-3-azide using copper-catalyze azide-alkyne cycloaddition, trypsinized into peptides using Trypsin/Lys-C Mix (Catalog No. V5071; Promega Corporation, Madison, Wisconsin, United States of America), enriched using PIERCE™ Avidin Agarose brand beads (Catalog No. 20219; Thermo Fisher Scientific Inc., Waltham, Massachusetts. United States of America), and prepared for nano-electrospray ionization-LC-MS/MS analysis as previously described in Hahm et al., 2020.
(§2) Data Analysis—Chemical Proteomics. Identification and analysis of peptides and proteins using LC-MS was accomplished using bioinformatics software and quality control parameter protocols as previously described in Hahm et al., 2020.
We performed quantitative liquid-chromatography tandem mass spectrometry (LC-MS/MS) chemical proteomic studies to identify the target protein and binding site(s) of SuTEx fragments with RNP granule modulating activity. […]
(§3) We detected ~8,700 probe-modified sites (Tyr and Lys) in our aggregate HeLa and HEK293T chemical proteomic analyses. […]

[1] = test system: stress granules (α-G3BP1) in HeLa cells; experiment: Dose-dependent inhibition of induced stress granules in HeLa cells by immunofluorescence; conditions: 2 h
Experimental: FIGS. 15A-15C. […] (FIG. 15B) Box and whisker plot of the number of SGs per cell from immunofluorescence images of G3BP1+SuTEx fragment ligand treatments in [COMPOUND LEFT OUT]-stressed cells from FIG. 15A (“x” indicates the mean; the center line is the median). […] A two-sample Student's t-test was performed for statistical comparison. (FIG. 15C) The average number of SGs per cell from FIG. 15B was plotted as a function of HHS-166 concentrations from cellular treatments to estimate the EC50 (~8 μM) for [COMPOUND LEFT OUT]-induced SG inhibition in situ. Data shown are representative of n=2 biologically independent replicates.
Immunofluorescence. Immunofluorescence (IF) of HEK293T cells was performed as previously described in Ciancone et al., 2022. HeLa cells were seeded at 9.0×10^4 in a 24-well plate with 12-mm glass coverslips. The next day, the cells were treated with 25 μM SuTEx probe for 2 hours in DMEM medium without FBS. The cells were then treated with 75 μM NaAsO2 for 30 minutes and fixed with 3% paraformaldehyde in PBS for 15 minutes at room temperature (RT) and washed with PBS twice. The fixed cells were permeabilized with PBST (0.1% Triton X-100) for 15 minutes at room temperature and blocked with 5% goat serum in PBST for 30 minutes at RT. The cells were incubated with anti-G3BP1 antibody H-10 (Catalog No. sc-365338 at 1:200 dilution; Santa Cruz Biotechnology, Inc., Dallas, Texas, United States of America) for 2 hours at RT and washed with PBST (0.1% Tween-20) for 5 minutes three times. Next, cells were incubated with goat anti-mouse Alexa 594 antibody (Catalog No. 115-585-003 at 1:800 dilution; Jackson ImmunoResearch, West Grove, Pennsylvania, United States of America) for 30 minutes at RT. […] A CellProfiler pipeline was developed to quantify the number of stress granules under each condition. Briefly, cells were recognized as blue^+ (nuclei) red^+ (G3BP1) objects, and the red^+ granules that meet the shape and size threshold were identified and counted. Cells on the border of linages were excluded from the analysis for more accurate quantification.

EDC3 Y475 = molecular target: T2, EDC3 Y475 (Homo sapiens, UniProt Q96F86); experiment: Competitive ABPP SILAC LC-MS/MS chemical proteomics, EDC3 Y475; conditions: glucose-deprived HEK293T cells, 25 μM, 2 h
T2 sequence (Q96F86 1-508): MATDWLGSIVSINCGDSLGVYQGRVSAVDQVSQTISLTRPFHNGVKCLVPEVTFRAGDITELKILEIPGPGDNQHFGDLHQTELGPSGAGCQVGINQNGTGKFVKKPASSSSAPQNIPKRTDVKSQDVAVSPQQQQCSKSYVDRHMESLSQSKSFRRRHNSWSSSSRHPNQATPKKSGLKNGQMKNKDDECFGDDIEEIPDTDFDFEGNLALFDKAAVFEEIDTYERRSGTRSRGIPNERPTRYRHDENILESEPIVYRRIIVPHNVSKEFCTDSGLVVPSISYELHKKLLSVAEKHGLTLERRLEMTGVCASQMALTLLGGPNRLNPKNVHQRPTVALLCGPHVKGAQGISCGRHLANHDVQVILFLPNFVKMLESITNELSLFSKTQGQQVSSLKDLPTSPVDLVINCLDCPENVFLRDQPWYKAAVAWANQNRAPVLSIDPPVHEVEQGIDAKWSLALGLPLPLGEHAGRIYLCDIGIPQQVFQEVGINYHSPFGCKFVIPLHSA
Experimental: as §1, §2
We performed quantitative liquid-chromatography tandem mass spectrometry (LC-MS/MS) chemical proteomic studies to identify the target protein and binding site(s) of SuTEx fragments with RNP granule modulating activity. […] SILAC light and heavy cells (HEK293T and HeLa) were treated with experimental conditions used for phenotypic screening including the SuTEx ligand pretreatment (25 μM, 2 h) followed by PB (glucose-deprivation, 15 min) and SG induction (75 μM [COMPOUND LEFT OUT], 30 min). Afterwards, cells were lysed, soluble proteomes treated with HHS-465 SuTEx probe (100 μM, 1 h), a global Tyr/Lys-reactive probe used previously for RNP granule investigations (Ciancone et al., 2022), and samples processed to probe-modified peptides for LC-MS/MS analysis as previously reported (Huang et al., 2021), shown in FIG. 10.
as §3

Row | liganding of HNRPK Y72 (in words) (HNRPK Y72) | EC50 ([1]; Homo sapiens, in situ, 1-25 μM, n=2, read-out: EC50 for induced SG inhibition) | SILAC ratio (SR), EDC3 Y475 (EDC3 Y475; HHS-465 100 μM, DMSO (light)/ligand (heavy)) | Compound | dose dependence of SG inhibition (in words) ([1]; 1-25 μM) | minimal effective concentration ([1]; Homo sapiens, p<0.001, read-out: concentration giving statistically significant decrease in SG formation) | liganding of EDC3 Y475 (in words) (EDC3 Y475)
1 | not | 8 µM | – | COc1ccc(S(=O)(=O)n2cc(C3CCCCC3)nn2)cc1 [HHS-166, 4-Cyclohexyl-1-((4-methoxyphenyl)sulfonyl)-111-1,2,3-triazole] | dose-dependent inhibition; also recorded: dose-dependent effects on SG formation | ≥ 12.5 µM | –
2 | – | – | > 2 | COc1ccc(S(=O)(=O)n2cc(CS(C)(=O)=O)nn2)cc1 [AHL-030, 1-((4-Methoxyphenyl)sulfonyl)-4-((methylsulfonyl)methyl)-1H-1,2,3-triazole] | – | – | localized AHL-030 site of binding to Y475; also recorded: liganded site (Y475)
